# Assay results from ChEMBL document CHEMBL4393729, “Sleep modulating agents” (Bioorg Med Chem Lett, 2019).
# Experiments:
# [1] = Half life in human at 200 mg; format: ADME
# [2] = Half life in human at 5 mg administered three times in a day; format: ADME; conditions: in vivo
# [3] = Half life in human at 150 mg; format: ADME
# [4] = Half life in human at 300 mg bid; format: ADME; conditions: in vivo
# [5] = Half life in human at 75 mg; format: ADME
# [6] = Half life in human at 1 to 6 mg; format: ADME
# [7] = Half life in human at 1 to 2 mg; format: ADME
# [8] = Half life in human at 1 to 3 mg; format: ADME
# [9] = Half life in human at 1 mg; format: ADME
# [10] = Half life in human at 20 mg; format: ADME
# [11] = Half life in human up to 3600 mg; format: ADME
# [12] = Half life in human; format: ADME
# [13] = Half life in human at 20 to 50 mg; format: ADME
# [14] = Half life in human at 18 to 36 mg; format: ADME
# [15] = Half life in human at 25 to 400 mg
# [16] = Oral bioavailability in human; format: ADME, organism-based; conditions: in vivo
# [17] = Half life in human at 8 mg treated 30 mins before bedtime; format: ADME; conditions: in vivo
# [18] = Half life in human at 2250 mg administered as two doses; format: ADME; conditions: in vivo
# [19] = Half life in human at 75 to 300 mg; format: ADME
# [20] = Half life in human at 5 to 20 mg; format: ADME
# [21] = Half life in human at 5 to 10 mg; format: ADME
structure (smiles),measurement,setting,value
NC(=O)C[S@+]([O-])C(c1ccccc1)c1ccccc1 [(S)-MODAFINIL],half-life,[1],4 h
NC[C@H](CC(=O)O)c1ccc(Cl)cc1 [ARBACLOFEN],half-life,[2],2 to 4 h
NC(=O)C[S@@+]([O-])C(c1ccccc1)c1ccccc1 [ARMODAFINIL],half-life,[1],15 h
same,half-life,[3],15 h
CC[C@H]1OC(=O)[C@H](C)[C@@H](O[C@H]2C[C@@](C)(OC)[C@@H](O)[C@H](C)O2)[C@H](C)[C@@H](O[C@@H]2O[C@H](C)C[C@H](N(C)C)[C@H]2O)[C@](C)(OC)C[C@@H](C)C(=O)[C@H](C)[C@@H](O)[C@]1(C)O [CLARITHROMYCIN],half-life,[4],5 to 7 h
CN(C)CC(c1ccc(O)cc1)C1(O)CCCCC1 (stereo unspecified) [DESVENLAFAXINE],half-life,[5],11 h
CN(C)CC/C=C1\c2ccccc2COc2ccccc21 [E-DOXEPIN],half-life,[6],8 to 24 h
Clc1ccc2c(c1)C(c1ccccc1)=NCc1nncn1-2 [ESTAZOLAM],half-life,[7],10 to 24 h
CN1CCN(C(=O)O[C@H]2c3nccnc3C(=O)N2c2ccc(Cl)cn2)CC1 [ESZOPICLONE],half-life,[8],6 h
CCOC(=O)c1ncn2c1CN(C)C(=O)c1cc(F)ccc1-2 [FLUMAZENIL],half-life,[9],0.6 to 1.2 h
CNCCC(Oc1ccc(C(F)(F)F)cc1)c1ccccc1 (stereo unspecified) [FLUOXETINE],half-life,[10],24 to 96 h
NCC1(CC(=O)O)CCCCC1 [GABAPENTIN],half-life,[11],5 to 7 h
OC1(c2ccc(Cl)cc2)c2ccccc2C2=NCCN21 (stereo unspecified) [MAZINDOL],half-life,[8],10 to 13 h
COC(=O)C(c1ccccc1)C1CCCCN1 (stereo unspecified) [METHYLPHENIDATE],half-life,[10],2 h
NCCC(Oc1ccc(C(F)(F)F)cc1)c1ccccc1 (stereo unspecified) [NORFLUOXETINE],half-life,[12],360 to 408 h
COc1ccc2[nH]cc(CCNC(=O)c3cc(=O)cco3)c2c1 [PIROMELATINE],half-life,[13],1 to 3 h
Clc1ccc(CCCOCCCN2CCCCC2)cc1 [PITOLISANT],half-life,[14],10 h
OCCOCCN1CCN(C2=Nc3ccccc3Sc3ccccc32)CC1 [QUETIAPINE],half-life,[15],6 h
CCC(=O)NCC[C@@H]1CCc2ccc3c(c21)CCO3 [RAMELTEON],bioavailability,[16],1.8%
same,half-life,[17],1 to 2.6 h
O=C([O-])CCCO.[Na+] [SODIUM OXYBATE],half-life,[18],0.6 h
NC(=O)OC[C@H](N)Cc1ccccc1 [SOLRIAMFETOL],half-life,[19],6 to 8 h
Cc1ccc(-n2nccn2)c(C(=O)N2CCN(c3nc4cc(Cl)ccc4o3)CC[C@H]2C)c1 [SUVOREXANT],half-life,[20],9 to 13 h
CCC(=O)NC[C@@H]1C[C@H]1c1cccc2c1CCO2 [TASIMELTEON],half-life,[10],0.9 to 1.7 h
COc1ccc(C(CN(C)C)C2(O)CCCCC2)cc1 (stereo unspecified) [VENLAFAXINE],half-life,[5],5 h
Cc1ccc(-c2nc3ccc(C)cn3c2CC(=O)N(C)C)cc1 [ZOLPIDEM],half-life,[21],1.4 to 4.5 h
